One block for each molecule: values may come before it.
Legend:
Recombinant human IDE = target: T1, Recombinant human IDE (Homo sapiens, UniProt P14735); test: Fluorescence polarization; assay type: biochemical
T1 sequence (P14735 1-1019): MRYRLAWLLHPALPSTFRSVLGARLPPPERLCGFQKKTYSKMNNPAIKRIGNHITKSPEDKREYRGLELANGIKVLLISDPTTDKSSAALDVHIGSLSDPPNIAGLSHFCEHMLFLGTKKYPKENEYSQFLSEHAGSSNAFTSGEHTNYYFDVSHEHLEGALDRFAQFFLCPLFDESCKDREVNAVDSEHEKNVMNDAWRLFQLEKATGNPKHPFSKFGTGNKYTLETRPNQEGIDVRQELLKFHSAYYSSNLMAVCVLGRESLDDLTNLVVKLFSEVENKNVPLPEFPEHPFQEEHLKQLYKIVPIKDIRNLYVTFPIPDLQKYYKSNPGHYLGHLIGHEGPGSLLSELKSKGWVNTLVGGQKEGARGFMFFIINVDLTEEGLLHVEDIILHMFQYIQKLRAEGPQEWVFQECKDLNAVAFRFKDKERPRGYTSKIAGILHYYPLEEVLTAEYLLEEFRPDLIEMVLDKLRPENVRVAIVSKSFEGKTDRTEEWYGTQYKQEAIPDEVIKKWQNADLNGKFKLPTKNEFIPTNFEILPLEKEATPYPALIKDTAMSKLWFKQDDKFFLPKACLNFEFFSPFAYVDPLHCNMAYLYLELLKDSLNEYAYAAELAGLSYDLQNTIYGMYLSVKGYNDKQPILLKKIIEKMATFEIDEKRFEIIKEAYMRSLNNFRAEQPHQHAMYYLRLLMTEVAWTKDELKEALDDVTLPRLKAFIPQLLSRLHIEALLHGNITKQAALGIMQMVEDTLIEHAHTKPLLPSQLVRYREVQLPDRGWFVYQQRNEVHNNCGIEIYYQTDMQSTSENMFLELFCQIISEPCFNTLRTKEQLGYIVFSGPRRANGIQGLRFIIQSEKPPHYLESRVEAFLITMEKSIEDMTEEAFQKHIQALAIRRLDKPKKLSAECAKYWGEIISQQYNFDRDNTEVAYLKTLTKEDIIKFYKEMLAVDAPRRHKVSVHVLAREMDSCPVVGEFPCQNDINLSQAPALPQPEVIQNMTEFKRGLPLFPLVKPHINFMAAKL

[1] = system: semi-purified protease purified from rat liver, inferred to be IDE; conditions: protease purified by affinity chromatography from rat liver; cited from earlier work
purified recombinant IDE = conditions: same form of purified recombinant IDE; cited from earlier work
[2] = ML345 50 nM, FP-based assay, mean ± SD of 3 independent runs

- KM^app of FBG degradation in presence of inhibitor (Recombinant human IDE; [2]): 0.392 ± 0.073 µM
- vmax^app of FBG degradation in presence of inhibitor (Recombinant human IDE; [2]): 0.827 ± 0.032 nM/s
- mechanism of inhibition of IDE (Recombinant human IDE; kinetics analyses, Lineweaver-Burk plots, P12–3A 5 µM or ML345 50 nM): irreversible
Molecule: O=c1c2cc(F)ccc2sn1-c1cc(S(=O)(=O)N2CCOCC2)ccc1N1CCOCC1 [ML345]

Molecule: bacitracin
- inhibition of the purified protease [1]: susceptible to inhibition

Molecule: insulin
- kcat of degradation by IDE (purified recombinant IDE): 0.025 s⁻¹

Source: publication PMC6585941 (SLAS discovery : advancing life sciences R & D, 2018)
